# From ChEMBL document CHEMBL5055685, “Discovery of the First Potent IDO1/IDO2 Dual Inhibitors: A Promising Strategy for Cancer Immunotherapy” (J Med Chem, 2021)
# Activity calls are given as the source filed them. The rule behind the calls is not given here.
# Tests used:
# [1] = molecular target: Mitogen-activated protein kinase kinase kinase 2 (Homo sapiens) (UniProt Q9Y2U5); test: Inhibition of MEKK2 (unknown origin) at 1 uM
# [2] = molecular target: Serine/threonine-protein kinase pim-3 (Homo sapiens) (UniProt Q86V86); test: Inhibition of PIM3 (unknown origin) at 1 uM
# [3] = molecular target: Death-associated protein kinase 2 (Homo sapiens) (UniProt Q9UIK4); test: Inhibition of DAPK2 (unknown origin) at 1 uM
# [4] = molecular target: Activin receptor type-1B (Homo sapiens) (UniProt P36896); test: Inhibition of ALK4 (unknown origin) at 1 uM
# [5] = molecular target: Mitogen-activated protein kinase 11 (Homo sapiens) (UniProt Q15759); test: Inhibition of p38beta (unknown origin) at 1 uM
# [6] = molecular target: Casein kinase I isoform gamma-1 (Homo sapiens) (UniProt Q9HCP0); test: Inhibition of CK1gamma1 (unknown origin) at 1 uM
# [7] = molecular target: Vascular endothelial growth factor receptor 3 (Homo sapiens) (UniProt P35916); test: Inhibition of FLT4 (unknown origin) at 1 uM
# HeLa = test: Cytotoxicity against human HeLa cells assessed as reduction in cell viability at 1 to 10 uM by CCK8 assay; type: functional, cell-based; conditions: dose 1-10 µM
# [8] = molecular target: Mitogen-activated protein kinase 14 (Homo sapiens) (UniProt Q16539); test: Inhibition of p38alpha (unknown origin) at 1 uM
# [9] = molecular target: Serine/threonine-protein kinase DCLK1 (Homo sapiens) (UniProt O15075); test: Inhibition of DCAMKL1 (unknown origin) at 1 uM
# [10] = molecular target: Serine/threonine-protein kinase 24 (Homo sapiens) (UniProt Q9Y6E0); test: Inhibition of MST3 (unknown origin) at 1 uM
# [11] = molecular target: Dual specificity mitogen-activated protein kinase kinase 3 (Homo sapiens) (UniProt P46734); test: Inhibition of MEK3 (unknown origin) at 1 uM
# [12] = molecular target: Glycogen synthase kinase-3 alpha (Homo sapiens) (UniProt P49840); test: Inhibition of GSK3A (unknown origin) at 1 uM
# [13] = molecular target: Macrophage-stimulating protein receptor (Homo sapiens) (UniProt Q04912); test: Inhibition of RON (unknown origin) at 1 uM
# [14] = molecular target: Vascular endothelial growth factor receptor 2 (Homo sapiens) (UniProt P35968); test: Inhibition of KDR (unknown origin) at 1 uM
# [15] = molecular target: Kinase suppressor of Ras 2 (Homo sapiens) (UniProt Q6VAB6); test: Inhibition of KSR2 (unknown origin) at 1 uM
# [16] = molecular target: Interleukin-1 receptor-associated kinase 1 (Homo sapiens) (UniProt P51617); test: Inhibition of IRAK1 (unknown origin) at 1 uM
# [17] = molecular target: Inactive tyrosine-protein kinase PEAK1 (Homo sapiens) (UniProt Q9H792); test: Inhibition of PEAK1 (unknown origin) at 1 uM
# [18] = molecular target: Serine/threonine-protein kinase Sgk2 (Homo sapiens) (UniProt Q9HBY8); test: Inhibition of SGK2 (unknown origin) at 1 uM
# [19] = molecular target: Dual specificity tyrosine-phosphorylation-regulated kinase 2 (Homo sapiens) (UniProt Q92630); test: Inhibition of DYRK2 (unknown origin) at 1 uM
# [20] = molecular target: Testis-specific serine/threonine-protein kinase 1 (Homo sapiens) (UniProt Q9BXA7); test: Inhibition of STK22D (unknown origin) at 1 uM
# [21] = molecular target: Myosin-IIIa (Homo sapiens) (UniProt Q8NEV4); test: Inhibition of MYO3A (unknown origin) at 1 uM
# [22] = molecular target: Cyclin-Y/Cyclin-dependent kinase 16 (Homo sapiens) (UniProt Q00536+Q8ND76); test: Inhibition of CDK16/cyclin-Y (unknown origin) at 1 uM; type: protein-complex assay
# [23] = molecular target: cAMP-dependent protein kinase catalytic subunit gamma (Homo sapiens) (UniProt P22612); test: Inhibition of PKAcg (unknown origin) at 1 uM
# [24] = molecular target: cAMP-dependent protein kinase catalytic subunit PRKX (Homo sapiens) (UniProt P51817); test: Inhibition of PRKX (unknown origin) at 1 uM
# [25] = molecular target: Mitogen-activated protein kinase 12 (Homo sapiens) (UniProt P53778); test: Inhibition of p38gamma (unknown origin) at 1 uM
# HCT-116 [26] = test: Antitumor immunity in BALB/c mouse xenografted with human HCT-116 cells assessed as necrotic Treg cells in tumor-draining lymph nodes by propidium iodide staining based flow cytometry analysis (reference value: 3.91 %); type: functional
# [27] = molecular target: Proto-oncogene tyrosine-protein kinase Src (Homo sapiens) (UniProt P12931); test: Inhibition of c-SRC (unknown origin) at 1 uM
# [28] = molecular target: Serine/threonine-protein kinase NLK (Homo sapiens) (UniProt Q9UBE8); test: Inhibition of NLK (unknown origin) at 1 uM
# [29] = molecular target: Serine/threonine-protein kinase Nek2 (Homo sapiens) (UniProt P51955); test: Inhibition of NEK2 (unknown origin) at 1 uM
# [30] = molecular target: Tyrosine-protein kinase ZAP-70 (Homo sapiens) (UniProt P43403); test: Inhibition of ZAP70 (unknown origin) at 1 uM
# HCT-116 [31] = test: Antitumor immunity in BALB/c mouse xenografted with human HCT-116 cells assessed as early Treg cells in tumor-draining lymph nodes by propidium iodide staining based flow cytometry analysis (reference value: 7.24 %); type: functional
# [32] = molecular target: Proto-oncogene tyrosine-protein kinase ROS (Homo sapiens) (UniProt P08922); test: Inhibition of ROS (unknown origin) at 1 uM
# HCT-116 [33] = test: Antitumor immunity in BALB/c mouse xenografted with human HCT-116 cells assessed as necrotic Treg cells in spleen by propidium iodide staining based flow cytometry analysis (reference value: 1.47 %); type: functional
# [34] = molecular target: Serine/threonine-protein kinase STK11 (Homo sapiens) (UniProt Q15831); test: Inhibition of LKB1 (unknown origin) at 1 uM
# HCT-116 [35] = test: Antitumor immunity in BALB/c mouse xenografted with human HCT-116 cells assessed as increase in CD86 expression in CD11c+ cells by propidium iodide staining based flow cytometry analysis (reference value: 72 %); type: functional
# [36] = molecular target: LIM domain kinase 2 (Homo sapiens) (UniProt P53671); test: Inhibition of LIMK2 (unknown origin) at 1 uM
# [37] = molecular target: Serine/threonine-protein kinase D1 (Homo sapiens) (UniProt Q15139); test: Inhibition of PKCmu (unknown origin) at 1 uM
# [38] = molecular target: cAMP-dependent protein kinase catalytic subunit beta (Homo sapiens) (UniProt P22694); test: Inhibition of PKAcb (unknown origin) at 1 uM
# [39] = Clearance in dog liver microsomes; type: ADME, Canis lupus familiaris, Microsome; conditions: read-out: CLH
# [40] = molecular target: Serine/threonine-protein kinase MARK2 (Homo sapiens) (UniProt Q7KZI7); test: Inhibition of MARK2 (unknown origin) at 1 uM
# [41] = molecular target: Serine/threonine-protein kinase Nek3 (Homo sapiens) (UniProt P51956); test: Inhibition of NEK3 (unknown origin) at 1 uM
# [42] = molecular target: Serine/threonine-protein kinase D3 (Homo sapiens) (UniProt O94806); test: Inhibition of PKCnu (unknown origin) at 1 uM
# Sequence of Serine/threonine-protein kinase Nek3 (Homo sapiens) (P51956 whole entry): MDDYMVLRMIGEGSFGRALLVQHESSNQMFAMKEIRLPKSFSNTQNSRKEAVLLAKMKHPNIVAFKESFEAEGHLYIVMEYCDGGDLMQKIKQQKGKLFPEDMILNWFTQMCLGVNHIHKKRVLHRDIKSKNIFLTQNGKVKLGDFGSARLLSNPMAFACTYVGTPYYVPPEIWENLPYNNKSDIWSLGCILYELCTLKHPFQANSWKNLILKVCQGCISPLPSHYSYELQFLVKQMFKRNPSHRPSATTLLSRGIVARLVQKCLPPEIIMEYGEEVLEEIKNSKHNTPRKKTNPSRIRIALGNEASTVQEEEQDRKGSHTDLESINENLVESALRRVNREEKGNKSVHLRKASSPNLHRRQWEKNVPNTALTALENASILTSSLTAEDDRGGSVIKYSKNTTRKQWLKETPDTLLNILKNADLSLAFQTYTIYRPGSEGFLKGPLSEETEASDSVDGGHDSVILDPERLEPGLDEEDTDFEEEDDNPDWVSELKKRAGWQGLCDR
# Sequence of Vascular endothelial growth factor receptor 2 (Homo sapiens) (P35968 whole entry): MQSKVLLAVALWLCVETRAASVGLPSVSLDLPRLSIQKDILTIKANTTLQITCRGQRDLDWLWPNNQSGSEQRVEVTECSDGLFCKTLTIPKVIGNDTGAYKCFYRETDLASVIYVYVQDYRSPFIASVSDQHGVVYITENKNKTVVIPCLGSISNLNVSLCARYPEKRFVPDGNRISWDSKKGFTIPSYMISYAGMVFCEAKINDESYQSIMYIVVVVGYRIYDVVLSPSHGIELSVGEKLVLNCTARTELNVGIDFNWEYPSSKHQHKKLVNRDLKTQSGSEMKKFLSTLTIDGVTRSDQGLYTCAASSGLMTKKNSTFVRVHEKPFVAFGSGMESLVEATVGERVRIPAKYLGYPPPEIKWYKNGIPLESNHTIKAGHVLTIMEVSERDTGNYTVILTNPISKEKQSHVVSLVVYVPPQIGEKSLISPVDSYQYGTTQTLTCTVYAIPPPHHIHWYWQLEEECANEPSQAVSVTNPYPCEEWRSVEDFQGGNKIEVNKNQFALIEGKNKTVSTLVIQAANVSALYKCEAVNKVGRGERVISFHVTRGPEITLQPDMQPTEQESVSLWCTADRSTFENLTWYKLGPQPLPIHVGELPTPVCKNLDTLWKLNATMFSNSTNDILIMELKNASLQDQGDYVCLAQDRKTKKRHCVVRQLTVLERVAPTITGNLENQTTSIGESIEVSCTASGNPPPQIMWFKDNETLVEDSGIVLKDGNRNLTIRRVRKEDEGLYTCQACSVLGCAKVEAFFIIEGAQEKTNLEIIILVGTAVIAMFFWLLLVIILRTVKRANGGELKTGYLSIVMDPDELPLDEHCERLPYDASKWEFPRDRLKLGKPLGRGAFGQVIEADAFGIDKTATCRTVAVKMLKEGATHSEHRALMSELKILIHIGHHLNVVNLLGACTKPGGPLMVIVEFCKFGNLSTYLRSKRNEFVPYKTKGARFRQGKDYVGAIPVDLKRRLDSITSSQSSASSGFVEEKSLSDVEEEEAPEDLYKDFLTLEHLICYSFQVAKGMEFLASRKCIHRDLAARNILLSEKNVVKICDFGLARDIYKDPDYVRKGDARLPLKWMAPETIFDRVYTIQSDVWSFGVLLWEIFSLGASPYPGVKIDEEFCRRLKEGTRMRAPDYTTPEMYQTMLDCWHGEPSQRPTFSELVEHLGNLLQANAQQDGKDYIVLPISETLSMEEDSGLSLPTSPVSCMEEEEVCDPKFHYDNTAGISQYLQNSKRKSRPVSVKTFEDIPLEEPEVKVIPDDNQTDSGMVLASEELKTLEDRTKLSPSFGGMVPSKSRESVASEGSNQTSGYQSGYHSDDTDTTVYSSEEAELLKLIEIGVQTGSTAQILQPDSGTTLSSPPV
# Sequence of cAMP-dependent protein kinase catalytic subunit gamma (Homo sapiens) (P22612 2-351 limits assumed): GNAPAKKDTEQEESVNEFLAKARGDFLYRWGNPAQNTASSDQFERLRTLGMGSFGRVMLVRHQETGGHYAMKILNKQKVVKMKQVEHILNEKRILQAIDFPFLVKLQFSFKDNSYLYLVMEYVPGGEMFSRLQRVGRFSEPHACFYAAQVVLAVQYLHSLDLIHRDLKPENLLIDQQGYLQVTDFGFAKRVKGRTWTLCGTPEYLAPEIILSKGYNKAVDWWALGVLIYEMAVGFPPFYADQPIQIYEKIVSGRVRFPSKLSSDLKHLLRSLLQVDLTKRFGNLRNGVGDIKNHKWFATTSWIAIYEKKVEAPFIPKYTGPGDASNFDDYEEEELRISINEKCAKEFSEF
# Sequence of Mitogen-activated protein kinase 11 (Homo sapiens) (Q15759 whole entry, canonical isoform): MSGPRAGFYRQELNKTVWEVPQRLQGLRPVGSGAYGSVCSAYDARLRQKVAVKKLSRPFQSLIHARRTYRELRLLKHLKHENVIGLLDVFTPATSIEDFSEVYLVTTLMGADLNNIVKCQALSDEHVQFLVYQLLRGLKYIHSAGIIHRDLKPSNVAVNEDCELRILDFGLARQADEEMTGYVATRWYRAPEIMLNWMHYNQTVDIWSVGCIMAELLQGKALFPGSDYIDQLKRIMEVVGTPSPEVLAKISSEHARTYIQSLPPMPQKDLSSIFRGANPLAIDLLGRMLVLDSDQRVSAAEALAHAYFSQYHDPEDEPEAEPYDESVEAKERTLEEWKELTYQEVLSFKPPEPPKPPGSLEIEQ
# Sequence of Glycogen synthase kinase-3 alpha (Homo sapiens) (P49840 2-483 limits assumed): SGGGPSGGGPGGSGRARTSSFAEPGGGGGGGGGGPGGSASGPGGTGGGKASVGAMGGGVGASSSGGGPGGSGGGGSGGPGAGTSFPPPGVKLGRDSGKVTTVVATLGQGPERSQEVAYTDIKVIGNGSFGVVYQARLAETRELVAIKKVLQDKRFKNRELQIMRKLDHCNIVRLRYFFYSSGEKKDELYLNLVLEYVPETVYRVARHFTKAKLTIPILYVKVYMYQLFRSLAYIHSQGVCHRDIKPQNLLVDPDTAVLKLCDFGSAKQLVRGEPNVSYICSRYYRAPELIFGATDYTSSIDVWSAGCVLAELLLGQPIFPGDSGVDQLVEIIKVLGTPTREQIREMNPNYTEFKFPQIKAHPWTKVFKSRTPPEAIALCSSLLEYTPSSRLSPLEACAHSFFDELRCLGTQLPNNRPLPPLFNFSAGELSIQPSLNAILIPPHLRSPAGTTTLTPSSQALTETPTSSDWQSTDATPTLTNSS
# Sequence of Myosin-IIIa (Homo sapiens) (Q8NEV4 whole entry): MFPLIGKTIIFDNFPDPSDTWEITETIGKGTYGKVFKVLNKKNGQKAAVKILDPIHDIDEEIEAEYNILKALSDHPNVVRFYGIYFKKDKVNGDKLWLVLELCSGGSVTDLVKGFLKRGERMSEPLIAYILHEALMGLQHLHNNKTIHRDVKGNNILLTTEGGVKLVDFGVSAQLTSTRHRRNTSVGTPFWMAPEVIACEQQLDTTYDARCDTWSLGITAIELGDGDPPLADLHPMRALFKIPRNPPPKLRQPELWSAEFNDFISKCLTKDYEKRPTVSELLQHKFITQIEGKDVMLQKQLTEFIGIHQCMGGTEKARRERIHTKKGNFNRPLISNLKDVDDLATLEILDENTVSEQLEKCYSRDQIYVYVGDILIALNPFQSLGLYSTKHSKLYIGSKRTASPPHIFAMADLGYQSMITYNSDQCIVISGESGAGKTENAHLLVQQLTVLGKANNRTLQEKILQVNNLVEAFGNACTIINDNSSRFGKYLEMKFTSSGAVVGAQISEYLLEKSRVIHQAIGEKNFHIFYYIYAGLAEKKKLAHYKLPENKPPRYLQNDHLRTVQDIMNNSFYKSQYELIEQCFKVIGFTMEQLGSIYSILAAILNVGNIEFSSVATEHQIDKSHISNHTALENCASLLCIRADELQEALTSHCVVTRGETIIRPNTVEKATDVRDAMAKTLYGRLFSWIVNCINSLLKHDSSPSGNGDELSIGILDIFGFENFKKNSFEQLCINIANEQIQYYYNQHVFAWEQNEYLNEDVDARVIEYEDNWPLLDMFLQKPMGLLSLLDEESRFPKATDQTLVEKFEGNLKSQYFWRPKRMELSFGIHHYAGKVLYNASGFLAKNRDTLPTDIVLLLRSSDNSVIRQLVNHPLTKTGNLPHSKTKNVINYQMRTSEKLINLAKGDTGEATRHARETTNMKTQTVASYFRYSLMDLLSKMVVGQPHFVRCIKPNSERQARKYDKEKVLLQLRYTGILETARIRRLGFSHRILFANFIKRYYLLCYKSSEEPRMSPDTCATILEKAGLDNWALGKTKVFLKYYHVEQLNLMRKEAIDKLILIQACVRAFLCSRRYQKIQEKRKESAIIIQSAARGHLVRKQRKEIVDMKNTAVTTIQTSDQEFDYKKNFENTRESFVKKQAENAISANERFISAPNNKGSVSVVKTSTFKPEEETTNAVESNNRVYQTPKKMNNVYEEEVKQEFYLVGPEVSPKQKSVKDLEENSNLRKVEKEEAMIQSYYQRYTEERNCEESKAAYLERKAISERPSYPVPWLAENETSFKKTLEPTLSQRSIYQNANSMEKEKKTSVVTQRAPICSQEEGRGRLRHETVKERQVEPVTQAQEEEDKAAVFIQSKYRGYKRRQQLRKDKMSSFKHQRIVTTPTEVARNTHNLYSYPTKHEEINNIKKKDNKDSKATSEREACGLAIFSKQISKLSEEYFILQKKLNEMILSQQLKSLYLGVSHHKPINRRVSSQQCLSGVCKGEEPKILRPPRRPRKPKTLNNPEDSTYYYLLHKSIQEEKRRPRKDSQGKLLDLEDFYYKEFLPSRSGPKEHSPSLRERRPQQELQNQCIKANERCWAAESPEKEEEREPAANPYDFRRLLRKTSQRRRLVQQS
# Sequence of Dual specificity mitogen-activated protein kinase kinase 3 (Homo sapiens) (P46734 whole entry): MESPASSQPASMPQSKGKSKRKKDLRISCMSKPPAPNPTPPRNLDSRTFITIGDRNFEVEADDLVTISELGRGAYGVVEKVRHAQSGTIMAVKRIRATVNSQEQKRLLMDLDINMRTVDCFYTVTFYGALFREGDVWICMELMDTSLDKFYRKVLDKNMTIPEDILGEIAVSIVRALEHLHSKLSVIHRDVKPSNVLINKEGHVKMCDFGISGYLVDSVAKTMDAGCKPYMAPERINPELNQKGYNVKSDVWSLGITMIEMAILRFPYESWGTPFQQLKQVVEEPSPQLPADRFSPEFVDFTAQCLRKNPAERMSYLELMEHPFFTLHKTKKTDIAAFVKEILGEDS
smiles,measurement,setting,value
OCCOCc1cn(CCNc2nonc2/C(=N/O)Nc2ccc(F)c(Br)c2)nn1,inhibition,[1],inactive
same,inhibition,[2],inactive
same,inhibition,[3],inactive
same,inhibition,[4],inactive
same,inhibition,[5],inactive
same,inhibition,[6],inactive
same,inhibition,[7],inactive
same,Activity,HeLa,Active
same,inhibition,[8],inactive
same,inhibition,[9],inactive
same,inhibition,[10],inactive
same,inhibition,[11],inactive
same,inhibition,[12],inactive
same,inhibition,[13],inactive
same,inhibition,[14],inactive
same,inhibition,[15],inactive
same,inhibition,[16],inactive
same,inhibition,[17],inactive
same,inhibition,[18],inactive
same,inhibition,[19],inactive
same,inhibition,[20],inactive
same,inhibition,[21],inactive
same,inhibition,[22],inactive
same,inhibition,[23],inactive
same,inhibition,[24],inactive
same,inhibition,[25],inactive
same,Activity,HCT-116 [26],0.73%
same,inhibition,[27],inactive
same,inhibition,[28],inactive
same,inhibition,[29],inactive
same,inhibition,[30],inactive
same,Activity,HCT-116 [31],3.84%
same,inhibition,[32],inactive
same,Activity,HCT-116 [33],0.78%
same,inhibition,[34],inactive
same,Activity,HCT-116 [35],62.6%
same,inhibition,[36],inactive
same,inhibition,[37],inactive
same,inhibition,[38],inactive
same,microsomal CLint,[39],245 µL/min/mg
same,inhibition,[40],inactive
same,inhibition,[41],inactive
same,inhibition,[42],inactive
